The values below come from patent US11912794B2, “Modulation of structured polypeptide specificity” (BicycleRD Limited, priority 2011, dated 2024).

Like-named read-outs stand apart in the source and are kept apart here. Numbered stars: 1 amine (or outer) side, 2 acyl side, 3 side chain; on linkers, the order of the positions; unused ones are H or OH. Bridge positions count the residues as written; N and C are the ends. Square brackets hold non-standard residues; d marks the D form. Peptide text beside a SMILES is read from it. 1Nal = N[C@@H](Cc1cccc2ccccc12)C(=O)O; TBMB = c1c(C[*:1])cc(C[*:3])cc1C[*:2]; NMeR = CN[C@@H](CCCNC(=N)N)C(=O)O; 3Pal = N[C@@H](Cc1cccnc1)C(=O)O; 4Pal = N[C@@H](Cc1ccncc1)C(=O)O; Cha = N[C@@H](CC1CCCCC1)C(=O)O; Aze = O=C(O)[C@@H]1CCN1; Sar = CNCC(=O)O Some results are limits rather than exact numbers.

The Ki is a measure of affinity in units of concentration, obtained from inhibition or displacement.

The target of the experiment is T1, human plasma Kallikrein (Homo sapiens, UniProt P03952).
T1 construct: purchased Stratech, UK
T1 sequence (P03952 20-638): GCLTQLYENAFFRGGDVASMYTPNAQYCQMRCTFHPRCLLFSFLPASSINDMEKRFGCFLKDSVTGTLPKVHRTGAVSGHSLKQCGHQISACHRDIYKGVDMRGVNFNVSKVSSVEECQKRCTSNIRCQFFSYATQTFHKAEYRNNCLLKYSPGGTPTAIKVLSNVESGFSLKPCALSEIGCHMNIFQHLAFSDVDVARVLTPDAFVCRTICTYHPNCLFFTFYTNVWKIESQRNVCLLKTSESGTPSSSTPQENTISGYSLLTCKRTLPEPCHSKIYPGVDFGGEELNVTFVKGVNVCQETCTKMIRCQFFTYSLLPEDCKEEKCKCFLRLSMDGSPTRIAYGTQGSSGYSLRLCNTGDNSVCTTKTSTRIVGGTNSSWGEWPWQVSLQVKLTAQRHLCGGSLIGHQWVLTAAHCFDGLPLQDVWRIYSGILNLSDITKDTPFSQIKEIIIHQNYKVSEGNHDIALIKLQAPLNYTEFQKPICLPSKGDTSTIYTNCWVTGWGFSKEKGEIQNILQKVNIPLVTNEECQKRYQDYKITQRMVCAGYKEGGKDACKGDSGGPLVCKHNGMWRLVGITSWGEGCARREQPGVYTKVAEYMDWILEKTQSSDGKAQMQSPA
The experiment can be described thus: Functional enzyme inhibition assay, fluorogenic substrate Z-PheArg-AMC. The format is biochemical. As to conditions: for loss in potency / reduction in affinity compared to wildtype: vs Ac-06-34-18(TMB)-NH2. Here is the method: Peptides were dissolved as the TFA-salts in their powder form, and stock solutions were usually prepared in water. All solutions were centrifuged and filtered ([…] syringe filters) prior absorption measurement at 280 nm. […] For peptides containing non-natural amino acids with suspected chromophoric properties (i.e. NorHar, 4PhenylPro, 3PaI, 4PaI, Tic, 4GuanPhe, 4,4-BPAI, 3,3-DPA, 1NAI, 2NAI, 4BenzylPro, Ind) concentrations were determined by weighing the powder and dissolving the peptide in a defined quantity of water.

The mark [1] stands for this setting: Ki (nM) (human kallikrein), Ac-06-34-18(TMB)-NH2 series.

Regarding `CC(C)C[C@@H]1NC(=O)[C@H](CC(=O)O)NC(=O)[C@H](CCC(N)=O)NC(=O)[C@H](Cc2c[nH]cn2)NC(=O)[C@H](C)NC(=O)[C@@H]2CSCc3cc(cc(c3)CSC[C@@H](C(=O)N[C@@H](C)C(N)=O)NC1=O)CSC[C@H](NC(=O)[C@H](C)N)C(=O)N[C@@H](C)C(=O)N[C@@H](Cc1c[nH]c3ccccc13)C(=O)N1CCC[C@H]1C(=O)N[C@@H](C)C(=O)N[C@@H](CCCNC(=N)N)C(=O)N2` [06-34-03 - Ala1,6] (H-ACAWPARCAHQDLCA-NH2; linker 2-8-14 via TBMB; N-terminus and C-terminus assumed), the “potency against human plasma Kallikrein compared to parent” value was “retained full potency”.
`CC(C)C[C@@H]1NC(=O)[C@H](CC(=O)O)NC(=O)[C@H](CCC(N)=O)NC(=O)[C@H](Cc2c[nH]cn2)NC(=O)CN(C)C(=O)[C@@H]2CSCc3cc(cc(c3)CSC[C@H](NC(=O)[C@H](C)N)C(=O)N(C)CC(=O)N[C@@H](Cc3c[nH]c4ccccc34)C(=O)N3CCC[C@H]3C(=O)N[C@@H](C)C(=O)N[C@@H](CCCNC(=N)N)C(=O)N2)CSC[C@@H](C(=O)N[C@@H](C)C(N)=O)NC1=O` [06-34-03 - N-MeGly1,6, AC N-MeGWPARCN-MeGHQDLCA] (H-AC[Sar]WPARC[Sar]HQDLCA-NH2; linker 2-8-14 via TBMB; N-terminus and C-terminus assumed): the “potency against human plasma Kallikrein compared to parent” value is “reduction in potency”.
`CC(=O)N[C@H]1CSCc2cc3cc(c2)CSC[C@H](NC(=O)[C@H](CCCNC(=N)N)NC(=O)[C@H](Cc2ccc(O)cc2)NC(=O)[C@@H]2CCCN2C(=O)[C@H](Cc2cccnc2)NC(=O)[C@H](CO)NC1=O)C(=O)N[C@@H](CC(C)C)C(=O)N[C@@H](Cc1c[nH]cn1)C(=O)N[C@@H](CCC(N)=O)C(=O)N[C@@H](CC(=O)O)C(=O)N[C@@H](CC(C)C)C(=O)N[C@H](C(N)=O)CSC3` [Ac-(06-34-18) 3Pal2 Tyr4] (Ac-CS[3Pal]PYRCLHQDLC-NH2; linker 1-7-13 via TBMB) registered a Ki (Ki, text b293, unit inferred) of 0.91 nM.
`CC(=O)N[C@H]1CSCc2cc3cc(c2)CSC[C@H](NC(=O)[C@H](Cc2ccc(NC(=N)N)cc2)NC(=O)[C@H](C)NC(=O)[C@@H]2CCCN2C(=O)[C@H](Cc2c[nH]c4ccccc24)NC(=O)[C@H](CO)NC1=O)C(=O)N[C@@H](CC(C)C)C(=O)N[C@@H](Cc1c[nH]cn1)C(=O)N[C@@H](CCC(N)=O)C(=O)N[C@@H](CC(=O)O)C(=O)N[C@@H](CC(C)C)C(=O)N[C@H](C(N)=O)CSC3` [Ac-(06-34-18) 4GuanPhe5]: the “loss in potency / reduction in affinity compared to wildtype” value was 2 fold.
As to `CC(=O)N[C@H]1CSCc2cc3cc(c2)CSC[C@H](NC(=O)[C@H](CCCNC(=N)N)NC(=O)[C@H](Cc2ccc(O)cc2)NC(=O)[C@@H]2CCCN2C(=O)[C@H](Cc2ccncc2)NC(=O)[C@H](CO)NC1=O)C(=O)N[C@@H](CC(C)C)C(=O)N[C@@H](Cc1c[nH]cn1)C(=O)N[C@@H](CCC(N)=O)C(=O)N[C@@H](CC(=O)O)C(=O)N[C@@H](CC(C)C)C(=O)N[C@H](C(N)=O)CSC3` [Ac-(06-34-18) 4Pal2 Tyr4] (Ac-CS[4Pal]PYRCLHQDLC-NH2; linker 1-7-13 via TBMB), the inhibitory constant (Ki) under setting [1] is 3.56 nM.
Regarding `CC(=O)N[C@H]1CSCc2cc3cc(c2)CSC[C@H](NC(=O)[C@H](CCCNC(=N)N)NC(=O)[C@@H](C)NC(=O)[C@@H]2CCCN2C(=O)[C@H](Cc2c[nH]c4ccccc24)NC(=O)[C@H](CO)NC1=O)C(=O)N[C@@H](CC(C)C)C(=O)N[C@@H](Cc1c[nH]cn1)C(=O)N[C@@H](CCC(N)=O)C(=O)N[C@@H](CC(=O)O)C(=O)N[C@@H](CC(C)C)C(=O)N[C@H](C(N)=O)CSC3` [Ac-(06-34-18) D-Ala4], the “loss in potency / reduction in affinity compared to wildtype” value turned out to be 7000 fold.
Same read-out and setting: under `CC(=O)N[C@H]1CSCc2cc3cc(c2)CSC[C@H](NC(=O)[C@@H](CCCNC(=N)N)NC(=O)[C@H](C)NC(=O)[C@@H]2CCCN2C(=O)[C@H](Cc2c[nH]c4ccccc24)NC(=O)[C@H](CO)NC1=O)C(=O)N[C@@H](CC(C)C)C(=O)N[C@@H](Cc1c[nH]cn1)C(=O)N[C@@H](CCC(N)=O)C(=O)N[C@@H](CC(=O)O)C(=O)N[C@@H](CC(C)C)C(=O)N[C@H](C(N)=O)CSC3` [Ac-(06-34-18) D-Arg5] stands 300 fold; under `CC(=O)N[C@H]1CSCc2cc3cc(c2)CSC[C@H](NC(=O)[C@H](CCCNC(=N)N)NC(=O)[C@H](C)NC(=O)[C@@H]2CCCN2C(=O)[C@@H](Cc2c[nH]c4ccccc24)NC(=O)[C@H](CO)NC1=O)C(=O)N[C@@H](CC(C)C)C(=O)N[C@@H](Cc1c[nH]cn1)C(=O)N[C@@H](CCC(N)=O)C(=O)N[C@@H](CC(=O)O)C(=O)N[C@@H](CC(C)C)C(=O)N[C@H](C(N)=O)CSC3` [Ac-(06-34-18) D-Trp2], 45000 fold.
Under setting [1], `CC(=O)N[C@H]1CSCc2cc3cc(c2)CSC[C@H](NC(=O)[C@H](CCCNC(=N)N)NC(=O)[C@H](Cc2cccc4ccccc24)NC(=O)[C@@H]2CCCN2C(=O)[C@H](Cc2ccccc2)NC(=O)[C@H](CO)NC1=O)C(=O)N[C@@H](CC(C)C)C(=O)N[C@@H](Cc1c[nH]cn1)C(=O)N[C@@H](CCC(N)=O)C(=O)N[C@@H](CC(=O)O)C(=O)N[C@@H](CC(C)C)C(=O)N[C@H](C(N)=O)CSC3` [Ac-(06-34-18) Phe2 1Nal4] (Ac-CSFP[1Nal]RCLHQDLC-NH2; linker 1-7-13 via TBMB) had a Ki of 13.5 nM.
As for `CC(=O)N[C@H]1CSCc2cc3cc(c2)CSC[C@H](NC(=O)[C@H](CCCNC(=N)N)NC(=O)[C@H](Cc2ccncc2)NC(=O)[C@@H]2CCCN2C(=O)[C@H](Cc2ccccc2)NC(=O)[C@H](CO)NC1=O)C(=O)N[C@@H](CC(C)C)C(=O)N[C@@H](Cc1c[nH]cn1)C(=O)N[C@@H](CCC(N)=O)C(=O)N[C@@H](CC(=O)O)C(=O)N[C@@H](CC(C)C)C(=O)N[C@H](C(N)=O)CSC3` [Ac-(06-34-18) Phe2 4Pal4] (Ac-CSFP[4Pal]RCLHQDLC-NH2; linker 1-7-13 via TBMB), the affinity under setting [1], expressed as Ki, was 2.2 nM.
For the compound `CC(=O)N[C@H]1CSCc2cc3cc(c2)CSC[C@H](NC(=O)[C@H](CCCNC(=N)N)N(C)C(=O)[C@H](Cc2ccc(O)cc2)NC(=O)[C@@H]2CCN2C(=O)[C@H](Cc2ccccc2)NC(=O)[C@H](CO)NC1=O)C(=O)N[C@@H](CC(C)C)C(=O)N[C@@H](Cc1c[nH]cn1)C(=O)N[C@@H](CCC(N)=O)C(=O)N[C@@H](CC(=O)O)C(=O)N[C@@H](CC(C)C)C(=O)N[C@H](C(N)=O)CSC3` [Ac-(06-34-18) Phe2 Aze3Tyr4 NMeArg5] (Ac-CSF[Aze]Y[NMeR]CLHQDLC-NH2; linker 1-7-13 via TBMB), the Ki (Ac-06-34-18(TMB)-NH2 series, read-out: Ki (nM) (human kallikrein)) is under 1 nM.
In the case of `CC(=O)N[C@H]1CSCc2cc3cc(c2)CSC[C@H](NC(=O)[C@H](CCCNC(=N)N)NC(=O)[C@H](CC2CCCCC2)NC(=O)[C@@H]2CCCN2C(=O)[C@H](Cc2ccccc2)NC(=O)[C@H](CO)NC1=O)C(=O)N[C@@H](CC(C)C)C(=O)N[C@@H](Cc1c[nH]cn1)C(=O)N[C@@H](CCC(N)=O)C(=O)N[C@@H](CC(=O)O)C(=O)N[C@@H](CC(C)C)C(=O)N[C@H](C(N)=O)CSC3` [Ac-(06-34-18) Phe2 Cha4] (Ac-CSFP[Cha]RCLHQDLC-NH2; linker 1-7-13 via TBMB), affinity under setting [1] was put at a Ki of 0.91 nM.
On the same count and under the same terms, under `CN=C(NC)NCCC[C@@H]1NC(=O)[C@H](C)NC(=O)[C@@H]2CCCN2C(=O)[C@H](Cc2c[nH]c3ccccc23)NC(=O)[C@H](CO)NC(=O)[C@@H](NC(C)=O)CSCc2cc3cc(c2)CSC[C@H](NC1=O)C(=O)N[C@@H](CC(C)C)C(=O)N[C@@H](Cc1c[nH]cn1)C(=O)N[C@@H](CCC(N)=O)C(=O)N[C@@H](CC(=O)O)C(=O)N[C@@H](CC(C)C)C(=O)N[C@H](C(N)=O)CSC3` [Ac-(06-34-18) SDMA5] stands 1410 nM.
